pIC50: −log10 of the molar value.
Legend:
[1] = molecular target: T1, Renin (Homo sapiens, UniProt P00797); assay: Inhibition of renin
T1 sequence (P00797 whole entry): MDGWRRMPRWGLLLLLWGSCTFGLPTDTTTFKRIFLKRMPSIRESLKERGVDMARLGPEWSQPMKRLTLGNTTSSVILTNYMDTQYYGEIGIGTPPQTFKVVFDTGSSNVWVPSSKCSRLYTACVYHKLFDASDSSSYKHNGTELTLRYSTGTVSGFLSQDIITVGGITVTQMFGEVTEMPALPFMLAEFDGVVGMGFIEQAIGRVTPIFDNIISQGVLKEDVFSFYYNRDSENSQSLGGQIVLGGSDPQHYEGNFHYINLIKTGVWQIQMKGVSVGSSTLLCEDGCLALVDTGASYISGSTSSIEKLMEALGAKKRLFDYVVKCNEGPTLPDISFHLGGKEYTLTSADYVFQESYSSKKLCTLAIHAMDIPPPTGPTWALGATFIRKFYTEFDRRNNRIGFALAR

[2] = molecular target: T2, Beta-secretase 2 (Homo sapiens, UniProt Q9Y5Z0); assay: Inhibition of BACE2
T2 sequence (Q9Y5Z0 whole entry): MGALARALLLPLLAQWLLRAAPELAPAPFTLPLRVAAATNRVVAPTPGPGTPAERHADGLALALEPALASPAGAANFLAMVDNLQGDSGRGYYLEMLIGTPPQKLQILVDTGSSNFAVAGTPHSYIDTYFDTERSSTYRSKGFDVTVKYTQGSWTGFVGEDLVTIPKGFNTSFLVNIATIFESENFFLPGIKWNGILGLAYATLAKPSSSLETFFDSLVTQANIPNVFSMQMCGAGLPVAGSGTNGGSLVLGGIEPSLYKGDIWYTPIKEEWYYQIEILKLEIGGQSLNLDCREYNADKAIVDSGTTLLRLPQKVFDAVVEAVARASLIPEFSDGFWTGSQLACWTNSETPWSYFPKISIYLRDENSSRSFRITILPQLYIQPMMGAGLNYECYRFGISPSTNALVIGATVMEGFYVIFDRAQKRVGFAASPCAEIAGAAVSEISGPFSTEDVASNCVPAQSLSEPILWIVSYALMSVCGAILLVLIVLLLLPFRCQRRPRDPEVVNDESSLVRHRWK

[3] = molecular target: Cathepsin D (Homo sapiens, UniProt P07339)
Description: Inhibition of cathepsin D

[4] = in vitro; details: human, LLC-PK1
Description: Apparent permeability across L-MDR1 cells

[5] = system: Brain; assay: Drug level in mouse brain at 30 mg/kg, ip after 2 hrs; format: ADME, organism-based; set-up: dose 30 mg/kg, route intraperitoneal; details: in vivo

Cathepsin D, sequence (P07339 65-162 limits assumed): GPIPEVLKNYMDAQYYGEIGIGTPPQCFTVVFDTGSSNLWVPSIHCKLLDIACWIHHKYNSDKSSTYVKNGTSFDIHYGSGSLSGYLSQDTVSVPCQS
Cathepsin D, sequence (P07339 169-412 limits assumed): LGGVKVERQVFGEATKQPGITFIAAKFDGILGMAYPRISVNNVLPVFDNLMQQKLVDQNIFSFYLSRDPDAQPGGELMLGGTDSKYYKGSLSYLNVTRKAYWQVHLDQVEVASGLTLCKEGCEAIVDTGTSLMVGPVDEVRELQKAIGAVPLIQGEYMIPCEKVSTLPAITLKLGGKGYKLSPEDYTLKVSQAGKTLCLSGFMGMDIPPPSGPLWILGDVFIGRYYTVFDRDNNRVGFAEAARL

Papp [4] | SMILES | further results
9 ×10⁻⁶ cm/s | C[C@@]1(N)Cc2ccc(F)c(c2)CC[C@H](c2ccc(F)cc2)NC(=O)c2cc(cc(-c3ccccc3C#N)c2)COC1=O | 
7 ×10⁻⁶ cm/s | C[C@@]1(N)Cc2cccc(c2)CC[C@H](c2ccc(F)cc2)NC(=O)c2cc(cc(-c3cccc(F)c3C#N)c2)COC1=O | 
6 ×10⁻⁶ cm/s | C[C@@]1(N)Cc2ccc(F)c(c2)CC[C@H](c2ccc(F)cc2)NC(=O)c2cc(cc(-c3cccc(F)c3C#N)c2)COC1=O | 
9 ×10⁻⁶ cm/s | C[C@@]1(N)Cc2cccc(c2)CC[C@H](c2ccccc2)NC(=O)c2cc(cc(-c3ccccc3C#N)c2)COC1=O | Activity [5]: 16%; pIC50 [1]: 3.56; pIC50 [2]: 4.39; pIC50 [3]: 4.32
6 ×10⁻⁶ cm/s | C[C@@]1(N)Cc2cccc(c2F)CC[C@H](c2ccc(F)cc2)NC(=O)c2cc(cc(-c3ccccc3C#N)c2)COC1=O | 

More lines, now with the values behind:

SMILES | Papp [4] | further results
CCCN(c1cc2cc(c1)C(=O)N[C@@H](c1ccccc1)CCc1cccc(c1)C[C@@](C)(N)COC2)S(C)(=O)=O |  | pIC50 [1]: 3.84; pIC50 [2]: 5.80; pIC50 [3]: 3.56
CN(c1cc2cc(c1)C(=O)N[C@@H](c1ccccc1)CCc1cccc(c1)C[C@@](C)(N)C(=O)OC2)S(=O)(=O)C(F)(F)F | 13 ×10⁻⁶ cm/s | 
C[C@@]1(N)Cc2cccc(c2)CC[C@H](c2ccccc2)NC(=O)c2cc(Br)cc(c2)COC1=O | 9 ×10⁻⁶ cm/s | 
CN(c1cc2cc(c1)C(=O)N[C@@H](c1ccccc1)CCc1cccc(c1)C[C@@](C)(N)C(=O)OC2)S(C)(=O)=O | 9 ×10⁻⁶ cm/s | 
CCCN(c1cc2cc(c1)C(=O)N[C@@H](c1ccccc1)CCc1cccc(c1)C[C@@](C)(N)C(=O)OC2)S(C)(=O)=O |  | pIC50 [1]: 3.77; pIC50 [2]: 4.27; pIC50 [3]: 4.01
CN(c1cc2cc(c1)C(=O)N[C@@H](c1ccccc1)CCc1cccc(c1)C[C@@](C)(N)C(=O)OC2)S(=O)(=O)CC(F)(F)F | 12 ×10⁻⁶ cm/s | 
CN(C)S(=O)(=O)N(C)c1cc2cc(c1)C(=O)N[C@@H](c1ccccc1)CCc1cccc(c1)C[C@@](C)(N)C(=O)OC2 | 15 ×10⁻⁶ cm/s | 

Reference: ChEMBL document CHEMBL1139967, “Design, synthesis, and SAR of macrocyclic tertiary carbinamine BACE-1 inhibitors” (Bioorg Med Chem Lett, 2007)
